# Experimental data as given in ChEMBL document CHEMBL3351771, “Development of inhibitors of the 2C-methyl-D-erythritol 4-phosphate (MEP) pathway enzymes as potential anti-infective agents” (J Med Chem, 2014).
# Columns and labels:
# [1] = Inhibition of Arabidopsis thaliana DXS
# Aquifex aeolicus = experiment: Inhibition of Aquifex aeolicus IspH assessed as residual activity at 1 mM
# [2] = target: T1, 1-deoxy-D-xylulose-5-phosphate synthase (Deinococcus radiodurans (strain ATCC 13939 / DSM 20539 / JCM 16871 /LMG 4051 / NBRC 15346 / NCIMB 9279 / R1 / VKM B-1422), UniProt Q9RUB5); experiment: Binding affinity to Deinococcus radiodurans DXS
# T1 sequence (Q9RUB5 whole entry): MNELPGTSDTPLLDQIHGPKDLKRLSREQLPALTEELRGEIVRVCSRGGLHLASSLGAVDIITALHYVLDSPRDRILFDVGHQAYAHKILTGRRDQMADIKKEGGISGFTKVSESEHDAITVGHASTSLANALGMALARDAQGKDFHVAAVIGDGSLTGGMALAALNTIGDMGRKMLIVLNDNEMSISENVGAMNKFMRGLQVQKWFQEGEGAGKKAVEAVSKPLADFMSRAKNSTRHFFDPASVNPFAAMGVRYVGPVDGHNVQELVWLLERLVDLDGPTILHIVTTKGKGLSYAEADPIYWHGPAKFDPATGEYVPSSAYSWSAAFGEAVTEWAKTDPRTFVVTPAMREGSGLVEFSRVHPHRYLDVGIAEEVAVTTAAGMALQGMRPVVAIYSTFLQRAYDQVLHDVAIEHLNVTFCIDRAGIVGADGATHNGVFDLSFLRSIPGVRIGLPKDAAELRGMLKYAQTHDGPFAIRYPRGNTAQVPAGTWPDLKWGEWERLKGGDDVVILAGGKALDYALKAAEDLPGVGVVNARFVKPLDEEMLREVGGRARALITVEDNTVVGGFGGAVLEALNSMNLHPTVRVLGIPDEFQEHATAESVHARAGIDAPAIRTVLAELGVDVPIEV
# [3] = target: T2, 1-deoxy-D-xylulose-5-phosphate synthase (Mycobacterium tuberculosis, UniProt P9WNS3); experiment: Binding affinity to Mycobacterium tuberculosis DXS
# T2 sequence (P9WNS3 whole entry): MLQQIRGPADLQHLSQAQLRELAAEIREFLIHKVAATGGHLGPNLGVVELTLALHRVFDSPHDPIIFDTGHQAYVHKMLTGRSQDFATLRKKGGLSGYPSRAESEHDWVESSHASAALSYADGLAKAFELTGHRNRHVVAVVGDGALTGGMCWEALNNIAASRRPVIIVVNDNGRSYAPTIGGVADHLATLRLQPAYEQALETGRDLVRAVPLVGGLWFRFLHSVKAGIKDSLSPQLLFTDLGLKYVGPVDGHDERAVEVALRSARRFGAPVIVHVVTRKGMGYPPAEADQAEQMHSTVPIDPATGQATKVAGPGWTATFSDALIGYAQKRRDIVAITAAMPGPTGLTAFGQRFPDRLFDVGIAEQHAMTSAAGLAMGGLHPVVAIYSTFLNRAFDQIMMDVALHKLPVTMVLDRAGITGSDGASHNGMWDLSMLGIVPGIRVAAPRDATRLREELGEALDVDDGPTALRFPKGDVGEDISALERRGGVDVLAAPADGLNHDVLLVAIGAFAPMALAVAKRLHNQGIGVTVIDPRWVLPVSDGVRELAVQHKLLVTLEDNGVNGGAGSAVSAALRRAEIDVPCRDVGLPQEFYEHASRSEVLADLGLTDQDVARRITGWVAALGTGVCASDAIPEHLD
# [4] = Inhibition of Aquifex aeolicus IspE
# [5] = Inhibition of Escherichia coli IspE
# [6] = Inhibition of Aquifex aeolicus IspH
# [7] = target: T3, 1-deoxy-D-xylulose-5-phosphate synthase (Escherichia coli O127:H6 (strain E2348/69 / EPEC), UniProt B7UJP3); experiment: Inhibition of Escherichia coli DXS
# T3 sequence (B7UJP3 whole entry): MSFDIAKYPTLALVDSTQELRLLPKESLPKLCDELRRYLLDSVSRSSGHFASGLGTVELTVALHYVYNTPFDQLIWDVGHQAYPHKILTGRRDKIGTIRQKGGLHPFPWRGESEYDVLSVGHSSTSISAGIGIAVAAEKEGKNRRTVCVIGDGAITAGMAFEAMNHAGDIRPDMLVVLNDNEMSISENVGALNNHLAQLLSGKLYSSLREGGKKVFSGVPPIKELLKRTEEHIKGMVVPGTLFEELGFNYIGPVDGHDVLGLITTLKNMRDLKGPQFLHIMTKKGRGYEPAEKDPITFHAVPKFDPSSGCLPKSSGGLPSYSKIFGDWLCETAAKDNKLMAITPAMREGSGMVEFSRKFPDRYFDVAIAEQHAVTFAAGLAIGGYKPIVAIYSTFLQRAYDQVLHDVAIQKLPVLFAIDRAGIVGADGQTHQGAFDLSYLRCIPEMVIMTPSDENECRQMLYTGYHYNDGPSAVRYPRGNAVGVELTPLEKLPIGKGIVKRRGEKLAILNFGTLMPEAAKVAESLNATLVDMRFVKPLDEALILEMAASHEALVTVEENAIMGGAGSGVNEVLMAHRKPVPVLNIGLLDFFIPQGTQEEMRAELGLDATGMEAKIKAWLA
# [8] = Inhibition of Mycobacterium smegmatis IspD; design: species or system Mycolicibacterium smegmatis
# [9] = Inhibition of tomato IspE; design: species or system Solanum lycopersicum
# Haemophilus influenzae = experiment: Antimicrobial activity against Haemophilus influenzae; format: functional
# [10] = target: T4, 1-deoxy-D-xylulose-5-phosphate synthase (Haemophilus influenzae (strain 86-028NP), UniProt Q4QKG6); experiment: Inhibition of Haemophilus influenzae DXS
# T4 sequence (Q4QKG6 whole entry): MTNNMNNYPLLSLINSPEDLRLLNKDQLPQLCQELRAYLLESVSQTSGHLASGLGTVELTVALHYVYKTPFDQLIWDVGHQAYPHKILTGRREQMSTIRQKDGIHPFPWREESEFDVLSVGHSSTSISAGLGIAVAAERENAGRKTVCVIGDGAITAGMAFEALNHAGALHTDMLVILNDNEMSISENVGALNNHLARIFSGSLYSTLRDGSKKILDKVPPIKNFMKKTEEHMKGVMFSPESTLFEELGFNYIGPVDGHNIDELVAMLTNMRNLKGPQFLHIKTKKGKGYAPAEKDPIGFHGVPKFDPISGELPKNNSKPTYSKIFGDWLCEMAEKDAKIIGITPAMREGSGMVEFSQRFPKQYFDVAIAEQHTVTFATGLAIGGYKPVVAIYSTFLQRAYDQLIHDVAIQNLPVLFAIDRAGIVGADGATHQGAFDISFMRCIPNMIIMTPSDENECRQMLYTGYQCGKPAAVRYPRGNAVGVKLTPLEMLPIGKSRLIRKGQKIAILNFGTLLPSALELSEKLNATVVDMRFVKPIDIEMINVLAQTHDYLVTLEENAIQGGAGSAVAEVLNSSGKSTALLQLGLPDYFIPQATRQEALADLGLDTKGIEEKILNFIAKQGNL
# [11] = Inhibition of Chlamydomonas DXS
# [12] = Inhibition of Plasmodium falciparum NF54 IspE
# [13] = Inhibition of Plasmodium falciparum IspF
# [14] = Inhibition of Mycobacterium tuberculosis IspF
# Escherichia coli [15] = experiment: Induction of Escherichia coli IspF assessed as fold increase in activity at 500 uM
# [16] = Inhibition of Arabidopsis thaliana IspD
# [17] = target: T1, 1-deoxy-D-xylulose-5-phosphate synthase; experiment: Inhibition of Deinococcus radiodurans DXS
# [18] = Inhibition of Escherichia coli IspD
# [19] = target: T5, 1-deoxy-D-xylulose 5-phosphate reductoisomerase (Mycobacterium tuberculosis, UniProt P9WNS1); experiment: Inhibition of Mycobacterium tuberculosis Dxr
# T5 sequence (P9WNS1 whole entry): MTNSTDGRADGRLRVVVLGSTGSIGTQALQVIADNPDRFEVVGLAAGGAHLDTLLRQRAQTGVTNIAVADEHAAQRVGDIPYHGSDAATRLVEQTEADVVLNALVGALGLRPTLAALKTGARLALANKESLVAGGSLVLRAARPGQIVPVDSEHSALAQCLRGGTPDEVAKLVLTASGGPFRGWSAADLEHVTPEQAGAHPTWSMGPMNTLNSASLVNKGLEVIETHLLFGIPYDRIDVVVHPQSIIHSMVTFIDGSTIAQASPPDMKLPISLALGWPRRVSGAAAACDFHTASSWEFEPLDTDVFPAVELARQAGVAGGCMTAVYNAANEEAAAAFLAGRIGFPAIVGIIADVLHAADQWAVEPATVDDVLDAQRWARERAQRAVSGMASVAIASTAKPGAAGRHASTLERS
# [20] = tested on: Mycobacterium tuberculosis; experiment: Antimicrobial activity against Mycobacterium tuberculosis; format: functional, organism-based
# [21] = Inhibition of Plasmodium falciparum Dxr
# [22] = Inhibition of Escherichia coli IspG
# Escherichia coli [23] = experiment: Inhibition of Escherichia coli IspF at 500 uM
# Escherichia coli [24] = experiment: Inhibition of Escherichia coli IspF at 500 uM after 30 mins preincubation
# [25] = Inhibition of Salmonella enteric DXS; design: species or system Salmonella enterica
# [26] = target: T2, 1-deoxy-D-xylulose-5-phosphate synthase; experiment: Inhibition of Mycobacterium tuberculosis DXS
# [27] = Inhibition of Yersinia pestis DXS
smiles,measurement,setting,value
COc1ccc(-c2onc(C(F)(F)F)c2-c2ccc(Br)cc2)c(O)c1,IC50,[1],32 µM
C/C(=C/CONS(=O)(=O)NC(=O)OC(C)(C)C)CO,Activity,Aquifex aeolicus,61%
Cc1ncc(C[n+]2csc(CCO[P@](=O)(O)OP(=O)(O)O)c2C)c(N)n1,Kd,[2],0.114 µM
same,Kd,[3],3.1 µM
Nc1nc(=O)n(C2CCCS2)cc1C#CCNS(=O)(=O)C(=O)[C@@H](O)[C@@H](O)[C@H](O)[C@H](O)CO (some centres undefined),IC50,[4],> 500 µM
same,IC50,[5],407 µM
COC(c1cn(CC#Cc2cn(C3CCCS3)c(=O)nc2N)c(C2CCCCC2)n1)C(F)(F)F (centres undefined),IC50,[5],9.9 µM
Cc1[nH]c2ccccc2c1C(Nc1ccccn1)c1ccccc1O (centres undefined),IC50,[5],19 µM
COc1cc(C#Cc2ccc(C#CCOc3cccnc3)cn2)nc(N)n1,IC50,[5],8.7 µM
O=P(O)(O)OP(=O)(O)OCCc1cccnc1 [PYRIDIN-3-YL-ETHYL-DIPHOSPHATE],IC50,[6],9.1 µM
CCOP(=O)(O)C(C)=O,Ki,[7],6.7 µM
O=c1c2ccccc2nc(-c2cccnc2)n1-c1ccc(Br)cn1,IC50,[5],3 µM
CCCCCCCCCCCC[N+](C)(C)CCOc1ccccc1.[Br-] [DOMIPHEN BROMIDE],IC50,[8],33 µg/mL
NC1=N/C(=N\NC(=O)c2cc(Cl)ccn2)c2ccc3ccccc3c21,IC50,[9],7.2 µM
CC1(C)C(=O)ON(Cc2ccccc2Cl)C1=O [KETOCLOMAZONE],MIC,Haemophilus influenzae,12.5 µg/mL
same,Ki,[10],23.3 µM
same,IC50,[11],100 µM
NC1=N/C(=N\NC(=O)c2ccccn2)c2ccc3ccccc3c21,IC50,[12],0.058 µM
CCOC(=O)C1=C(C)N=c2s/c(=C\c3cc(Br)c(O)c(Br)c3)c(=O)n2C1C1CCCS1 (centres undefined),IC50,[13],9.6 µM
same,IC50,[14],6.1 µM
C[C@@](CO)(OP(=O)(O)O)[C@H](O)COP(=O)(O)CP(=O)(O)O,fold change (FC),Escherichia coli [15],1.6
COc1ccccc1-c1cnc(N)c(C#CCNS(=O)(=O)C2CC2)c1,IC50,[5],242 µM
CC(C)(CO)C(=O)N(O)Cc1ccccc1Cl,MIC,Haemophilus influenzae,64 µg/mL
same,IC50,[10],3.1 µM
Oc1c(Cc2ccccc2)c(Cl)cc2ncnn12,IC50,[16],0.14 µM
Nc1nc(=O)n(C2CCCS2)cc1S(=O)(=O)c1ccccc1 (centres undefined),IC50,[4],> 500 µM
same,IC50,[5],220 µM
O=C(O)c1ccc(-c2ccc(/C=N/NC3Nc4ccccc4S3)o2)cc1 (centres undefined),IC50,[1],33 µM
COc1ccc2nc(NC(=O)c3cc(-c4ccccc4O)n[nH]3)sc2c1,IC50,[16],1.8 µM
Cc1ncc(Cc2csc(CCO)c2C)c(N)n1 [3-DEAZATHIAMINE],IC50,[17],430 µM
C/C(=C/COC(=O)Nc1ccc(C)cc1)CO,Activity,Aquifex aeolicus,62%
O=P(O)(O)OC[C@@H](O)[C@@H](O)CO,IC50,[18],1360 µM
O=C(CCCc1ccccc1)N(O)CCCP(=O)(O)O,IC50,[19],17.8 µM
same,IC50,[20],17.8 µM
CN(O)C(=O)CCC(c1ccccc1)P(=O)(O)O (centres undefined),IC50,[21],0.0031 µM
FC(F)(F)Oc1cccc(Cn2cnc3ccccc32)c1,IC50,[17],595 µM
CC(C)(C(=O)O)C(=O)N(O)Cc1ccccc1Cl,IC50,[10],1 µM
Oc1csc(Nc2nccs2)n1,IC50,[5],160 µM
C#CCOP(=O)(O)OP(=O)(O)O [PROP-2-YNYL DIPHOSPHATE],IC50,[22],0.75 µM
C[C@@](CO)(OP(=O)(O)O)[C@H](O)COP(=O)(O)CP(=O)(O)OC[C@H]1O[C@@H](n2ccc(N)nc2=O)[C@H](O)[C@@H]1O,inhibition,Escherichia coli [23],0%
same,inhibition,Escherichia coli [24],37%
C#CCCOP(=O)(O)OP(=O)(O)O [BUT-3-YNYL DIPHOSPHATE],IC50,[6],0.45 µM
N#Cc1cnn2c(O)c(Cc3ccccc3)c(Cl)cc12,IC50,[16],0.035 µM
CCCCOP(=O)(O)C(C)=O,Ki,[25],8.4 µM
same,Ki,[26],4 µM
same,Ki,[27],7.5 µM
same,Ki,[7],5.6 µM
O=P(O)(O)OP(=O)(O)OCc1cccnc1,IC50,[6],38 µM
Nc1nc(=O)n(C2CCCO2)cc1C#CCNS(=O)(=O)C1CC1 (centres undefined),IC50,[5],2 µM
CN(C)c1ccnc(C(=O)N/N=C2\N=C(N)c3c2ccc2ccccc32)c1,IC50,[12],0.018 µM
Nc1nc(=O)n(C2CCCS2)cc1C#CCNS(=O)(=O)C1CC1 (centres undefined),IC50,[5],1.7 µM
COCCS(=O)(=O)NCC#Cc1cn(C2CCCS2)c(=O)nc1N (centres undefined),IC50,[4],> 500 µM
same,IC50,[5],30 µM
CC(=O)P(=O)(O)OCc1ccccc1,Ki,[7],10.4 µM
